This is an account of results in ChEMBL document CHEMBL1133323, “Antitumor agents. Part 202: novel 2'-amino chalcones: design, synthesis and biological evaluation” (2000).

The subject of one test is SK-MEL-2. As to the kind of experiment: In vitro cytotoxicity against human melanoma (SKMEL-2) cell line. Particulars: for EC50: read-out: ED50 (the source's name). It is filed as functional.
In test [1] the test system is KB. As to the kind of experiment: In vitro cytotoxicity against human P-glycoprotein-expressing epidermoid carcinoma of the nasopharynx (KB-VIN) cell line. It is filed as functional. The note with it: read-out: ED50 (the source's name).
The subject of test [2] is U-87 MG. As to the kind of experiment: (§1) In vitro cytotoxicity against human glioblastoma (U-87-MG) cell line. It is filed as functional, U-87MG ATCC. The arrangement: concentration or dose not given beside the values.
Another test concerns A549. As to the kind of experiment: In vitro cytotoxicity against human lung carcinoma (A-549) cell line. The note with it: read-out: ED50 (the source's name). It is filed as functional.
The subject of test [3] is KB. The test can be described thus: In vitro cytotoxicity against human epidermoid carcinoma of the nasopharynx (KB) cell line. It is filed as functional. Particulars: read-out: ED50 (the source's name).
Test [4] relates to U-87 MG. Described as §1. Type of test: functional, U-87MG ATCC. The note with it: read-out: ED50 (the source's name).
The subject of another test is MCF7. The test can be described thus: In vitro cytotoxicity against human breast cancer (MCF-7) cell line. Type of test: functional. Particulars: read-out: ED50 (the source's name).
In another test the test system is HCT-8. As to the kind of experiment: In vitro cytotoxicity against human ileocecal carcinoma (HCT-8) cell line. It is filed as functional. Particulars: for EC50: read-out: ED50 (the source's name).
The next test deals with 1A9. As to the kind of experiment: In vitro cytotoxicity against human ovarian cancer (IA9) cell line. It is filed as functional. Particulars: read-out: ED50 (the source's name).
A further test has as its system HOS. As to the kind of experiment: In vitro cytotoxicity against human osteosarcoma (Hos) cell line. Type of test: functional. Particulars: for EC50: read-out: ED50 (the source's name).

≈ marks a conversion by molar mass, not a printed value.

As to `Cc1ccccc1/C=C/C(=O)c1ccccc1N`, the EC50 in the test with SK-MEL-2 was 5.1 mg/L (≈ 21.5 µM); with KB [1], 1.25 mg/L (≈ 5.27 µM); in the test with A549, 3.5 mg/L (≈ 14.7 µM); in the test on KB [3], 1.35 mg/L (≈ 5.69 µM); with U-87 MG [4], over 10 mg/L; with MCF7, 6.1 mg/L (≈ 25.7 µM). Moreover, the EC50 in the test with HCT-8 is 9.8 mg/L (≈ 41.3 µM); with 1A9, 1.2 mg/L (≈ 5.06 µM); in the test on HOS it was 4 mg/L (≈ 16.9 µM). Besides, the Inhibition in the test on U-87 MG [2] stood at 34%.

`Nc1cc2c(cc1C(=O)/C=C/c1ccccc1F)OCO2`: the EC50 was 6.5 mg/L (≈ 22.8 µM) in the test on SK-MEL-2; 0.95 mg/L (≈ 3.33 µM) with KB [1]; 2 mg/L (≈ 7.01 µM) in the test with A549; 1.5 mg/L (≈ 5.26 µM) in the test on KB [3]; 7 mg/L (≈ 24.5 µM) in the test on U-87 MG [4]; 2.6 mg/L (≈ 9.11 µM) in the test on MCF7. In addition, the EC50 in the test with HCT-8 was determined as 3 mg/L (≈ 10.5 µM); in the test on 1A9, 1.5 mg/L (≈ 5.26 µM); with HOS, 4 mg/L (≈ 14 µM).

On to `COc1cccc(/C=C/C(=O)c2ccccc2N)c1`, for which the EC50 was determined as 3.5 mg/L (≈ 13.8 µM) in the test with SK-MEL-2; 0.3 mg/L (≈ 1.18 µM) in the test on KB [1]; 1.2 mg/L (≈ 4.74 µM) with A549; 0.65 mg/L (≈ 2.57 µM) in the test with KB [3]; 5.1 mg/L (≈ 20.1 µM) in the test with U-87 MG [4]; 1.3 mg/L (≈ 5.13 µM) in the test on MCF7. The EC50 in the test on HCT-8 came to 4.5 mg/L (≈ 17.8 µM); in the test with 1A9, 0.8 mg/L (≈ 3.16 µM); with HOS it was 2 mg/L (≈ 7.9 µM).

`Cc1ccccc1C1OC1C(=O)c1ccccc1N` (stereo unspecified): the Inhibition came to 45% in the test with SK-MEL-2, 28% with U-87 MG [2], 41% in the test with HCT-8 and 47% with HOS. Further, the EC50 in the test on SK-MEL-2 is over 20 mg/L; in the test on KB [1] it was 11.5 mg/L (≈ 45.4 µM); with A549, 17 mg/L (≈ 67.1 µM); in the test with KB [3], 15.5 mg/L (≈ 61.2 µM); with U-87 MG [4] it was over 20 mg/L; with MCF7, 19.5 mg/L (≈ 77 µM). The EC50 with HCT-8 was over 20 mg/L; in the test on 1A9, 12.5 mg/L (≈ 49.3 µM); with HOS, over 20 mg/L.

Turning to `COc1cccc(/C=C/C(=O)c2ccc3c(c2)OCO3)c1`, the Inhibition amounted to 42% in the test with SK-MEL-2, 20% with U-87 MG [2], 28% with HCT-8 and 42% in the test with HOS. For the same compound, the EC50 in the test with SK-MEL-2 is over 20 mg/L; in the test on KB [1] it was 14 mg/L (≈ 49.6 µM); in the test with A549 it was 18.5 mg/L (≈ 65.5 µM); in the test on KB [3] it was 18.7 mg/L (≈ 66.2 µM); in the test on U-87 MG [4], over 20 mg/L; in the test on MCF7 it was 19 mg/L (≈ 67.3 µM). In addition, the EC50 was over 20 mg/L in the test on HCT-8, 15 mg/L (≈ 53.1 µM) in the test on 1A9 and over 20 mg/L in the test with HOS.

For the compound `COc1cccc(/C=C/C(=O)c2cc3c(cc2N)OCO3)c1`, the EC50 in the test with SK-MEL-2 was 2.3 mg/L (≈ 7.74 µM); in the test with KB [1] it was 0.3 mg/L (≈ 1.01 µM); in the test on A549, 0.45 mg/L (≈ 1.51 µM); with KB [3], 0.52 mg/L (≈ 1.75 µM); with U-87 MG [4], 8 mg/L (≈ 26.9 µM); with MCF7, 0.48 mg/L (≈ 1.61 µM). Moreover, the EC50 in the test with HCT-8 was determined as 1.5 mg/L (≈ 5.05 µM); in the test on 1A9 it was 0.35 mg/L (≈ 1.18 µM); in the test with HOS, 2.4 mg/L (≈ 8.07 µM).

As for `Nc1cc2c(cc1C(=O)/C=C/c1ccc(F)cc1)OCO2`, the EC50 in the test on SK-MEL-2 is 9 mg/L (≈ 31.5 µM); with KB [1] it was 2.2 mg/L (≈ 7.71 µM); in the test on A549, 4.2 mg/L (≈ 14.7 µM); in the test with KB [3] it was 3.1 mg/L (≈ 10.9 µM); in the test on U-87 MG [4], over 10 mg/L; in the test with MCF7 it was 5.1 mg/L (≈ 17.9 µM). Moreover, the EC50 with HCT-8 was 6.5 mg/L (≈ 22.8 µM); with 1A9, 3.5 mg/L (≈ 12.3 µM); in the test on HOS, 6 mg/L (≈ 21 µM). Also, in the test on U-87 MG [2], the Inhibition is reported as 49%.

On to `COc1cccc(C2OC2C(=O)c2cc3c(cc2N)OCO3)c1` (stereo unspecified), for which the EC50 worked out at 9.8 mg/L (≈ 31.3 µM) in the test with SK-MEL-2; 1.3 mg/L (≈ 4.15 µM) in the test with KB [1]; 2 mg/L (≈ 6.38 µM) with A549; 2 mg/L (≈ 6.38 µM) with KB [3]; 5 mg/L (≈ 16 µM) in the test on U-87 MG [4]; 1.1 mg/L (≈ 3.51 µM) in the test with MCF7. The EC50 in the test with HCT-8 was 2.1 mg/L (≈ 6.7 µM); with 1A9 it was 1.2 mg/L (≈ 3.83 µM); in the test with HOS, 4.5 mg/L (≈ 14.4 µM).

On to `Nc1cc2c(cc1C(=O)C1OC1c1ccccc1F)OCO2` (stereo unspecified), for which the EC50 is 9.5 mg/L (≈ 31.5 µM) in the test with SK-MEL-2; 2.3 mg/L (≈ 7.63 µM) in the test on KB [1]; 3.5 mg/L (≈ 11.6 µM) in the test on A549; 15.4 mg/L (≈ 51.1 µM) with KB [3]; 9 mg/L (≈ 29.9 µM) with U-87 MG [4]; 2.3 mg/L (≈ 7.63 µM) in the test on MCF7. Besides, the EC50 in the test with HCT-8 amounted to 4.8 mg/L (≈ 15.9 µM); in the test on 1A9, 1.85 mg/L (≈ 6.14 µM); with HOS, 4 mg/L (≈ 13.3 µM).

As usually defined, the Inhibition is how much of the control response was suppressed.
